Test results as given in patent US9931324B2, “Indolizine derivatives and their use in neurodegenerative diseases” (Merck Patent GmbH, priority 2014, dated 2018).

Columns and labels:
P2X7 [1] = target: T1, P2X7 (Homo sapiens, UniProt Q99572); assay: IL-1β release assay in THP-1 cells (sandwich ELISA, BzATP-stimulated); type: cell-based; design: endogenous in cells; host or cells: THP-1 cells (PMA-differentiated, LPS-primed); settings: LPS primed, 0.8 mM BzATP, mature IL-1β release, read-out: hTHP-1/IL-ib IC50
T1 sequence (Q99572 1-595): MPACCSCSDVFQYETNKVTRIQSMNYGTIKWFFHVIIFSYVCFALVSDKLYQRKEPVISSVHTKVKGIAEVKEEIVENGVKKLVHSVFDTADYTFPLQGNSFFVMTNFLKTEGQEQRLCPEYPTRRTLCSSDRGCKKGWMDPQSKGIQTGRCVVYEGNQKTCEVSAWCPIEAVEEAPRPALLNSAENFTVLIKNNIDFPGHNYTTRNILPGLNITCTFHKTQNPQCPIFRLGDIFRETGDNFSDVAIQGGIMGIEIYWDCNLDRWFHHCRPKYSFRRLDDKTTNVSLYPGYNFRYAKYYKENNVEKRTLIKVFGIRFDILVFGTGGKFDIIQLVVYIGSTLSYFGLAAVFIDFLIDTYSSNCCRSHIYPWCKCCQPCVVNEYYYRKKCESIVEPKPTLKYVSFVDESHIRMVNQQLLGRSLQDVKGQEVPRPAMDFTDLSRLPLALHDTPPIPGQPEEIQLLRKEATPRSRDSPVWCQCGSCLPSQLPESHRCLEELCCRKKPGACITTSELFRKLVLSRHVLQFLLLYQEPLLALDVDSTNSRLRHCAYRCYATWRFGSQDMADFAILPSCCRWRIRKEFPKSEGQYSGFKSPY
Method: IL-1β release assay: The activation of P2X7 by ATP leads to a fast transient activation of cells resulting in influx of Ca^2+ followed by conversion of pro-IL-1β to active IL-1β. The functional activity of P2X7 compounds was measured by the release of mature IL-1β in the culture medium of THP-1 cells, detected by sandwich ELISA. Cells were maintained in complete growth medium (RPMI 1640+10% HI-FCS+2 mM L-glutamine+1× PS). […] THP-1 cells were harvested from the flask in 50 ml by centrifugation for 3 min at 100 g. The cells were resuspended to 2×10^5 cells/ml in medium supplemented with 0.5 μM PMA and incubated. The cells were washed and resuspended to 1.5×10^5 cells/ml in medium complemented with 10 ng/ml LPS, and the cells were primed for 4 h at 37° C., 5% CO2. After addition of 20 μL of prediluted test compounds, blank, standard and control reagents, cells were incubated for a further 20 min at 37° C. and stimulated with 0.8 mM BzATP for 30 minutes. The cells were centrifuged, supernatant was collected and the presence of mature IL-1β was detected using Dual human IL-1b kit following manufacturer's instruction. The tetrahydrobenzodiazepine analogs effectively modulated the activity of P2X7 in the cells as measured by the levels of pro-inflammatory cytokine IL-1β, which is released by the activation of P2X7 receptor.

P2X7 [2] = target: T1, P2X7; assay: Pore permeation assay (YO PRO dye uptake, BzATP-induced); type: cell-based; design: expressed in transfected cells; host or cells: HEK293; settings: HEK293 transfected with human P2X7 receptor, BzATP 10 uM, read-out: hP2X7 IC50
Method: Agonist-induced pore formation was determined by measuring cellular uptake of YO PRO fluorescence dye in HEK293 transfected with human P2X7 receptor. A HEK293 cell over expressing human P2X7 was harvested using HQTase reagent to detach the cells from T75 cm flask. The harvested cells are centrifuged @1200 rpm for 5 min at room temperature. The viability of cells was determined by Trypan blue dye and the cells are plated @10,000 cell/well in 50 ul volume in a 384W BD Poly lysine coated plate and incubated overnight at 37 C. After overnight incubation, the culture medium was replaced with 35 ul/well assay buffer (5 mM KCl, 0.1 mM CaCl2, 5 mM Glucose, 10 mM HEPES buffer pH7.4 containing 125 mM NaCl. The serial dilution of compounds was performed using Bravo liquid handling instrument and the compounds were added using Bravo to the cell assay plate starting at 2.5 uM with three dilutions for 10 points. The positive control inhibitor compound was added to column 23. The plate was shaken slowly on a plate shaker for 10 seconds. The cells were incubated with the compound for 20 minutes at room temperature. After the incubation period, YO PRO dye (1 uM) along with BzATP (10 uM) were added to cells at 10 ul/well. The plate was centrifuged at 1000 rpm for 5 seconds and incubated at room temperature for 30 minutes. The uptake of YO PRO dye into the cells was measured using Envision Fluorescence plate reader instrument (Perkin Elmer).

IC50 (P2X7 [1]) [nM] | IC50 (P2X7 [2]) [nM] | SMILES
101 to 500 | 10 to 100 | O=C(NCC1CCC(F)(F)CC1)c1cc(C2CCC2)n2cccc(Cl)c12 [Compound 5, 8-chloro-3-cyclobutyl-N-((4,4-difluorocyclohexyl)methyl)indolizine-1-carboxamide]
101 to 500 | 101 to 500 | O=C(NCC1CCC(F)(F)CC1)c1cc(I)n2cccc(Cl)c12 [Compound 9]
101 to 500 | 10 to 100 | O=C(NCC1(O)CCC(F)(F)CC1)c1cc(C2CCC2)n2cccc(Cl)c12 [Compound 12, 8-chloro-3-cyclobutyl-N-((4,4-difluoro-1-hydroxycyclohexyl)methyl) indolizine-1-carboxamide]
10 to 100 | 10 to 100 | O=C(NCC1CCC(F)(F)CC1)c1cc(C2=COCC2)n2cccc(Cl)c12 [Compound 14, 8-chloro-N-((4,4-difluorocyclohexyl)methyl)-3-(4,5-dihydrofuran-3-yl)indolizine-1-carboxamide]
10 to 100 | < 10 | O=C(NCC1CCCC(F)(F)C1)c1cc(C2CCCO2)n2cccc(Cl)c12 (stereo not shown) [Compound 17, 8-Chloro-3-(tetrahydro-furan-2-yl)-indolizine-1-carboxylic Acid (3,3-difluoro-cyclohexylmethyl)-amide]
10 to 100 | 10 to 100 | COCCc1cc(C(=O)NC[C@@]2(O)CCC[C@@H](C)C2)c2c(Cl)cccn12 [Compound 18]
101 to 500 | 101 to 500 | O=C(NCC1CCC(F)(F)CC1)c1cc(C2=CCOC2)n2cccc(Cl)c12 [Compound 21, 8-chloro-N-((4,4-difluorocyclohexyl)methyl)-3-(2,5-dihydrofuran-3-yl) indolizine-1-carboxamide]
10 to 100 | 10 to 100 | O=C(NCC1CCC(F)(F)CC1)c1cc(C2CCCO2)n2cccc(Cl)c12 (stereo not shown) [Compound 23, 8-Chloro-3-(tetrahydro-furan-2-yl)-indolizine-1-carboxylic Acid (4,4-difluoro-cyclohexyl methyl)-amide]
101 to 500 | 101 to 500 | COCCc1cc(C(=O)NCC2(O)CCCC3(CC3)C2)c2c(Cl)cccn12 (stereo not shown) [Compound 29, 8-chloro-N-((5-hydroxyspiro[2.5]octan-5-yl)methyl)-3-(2-methoxyethyl) indolizine-1-carboxamide]
101 to 500 | 10 to 100 | O=C(NCC1CCC(F)(F)CC1)c1cc(CC2CCOC2)n2cccc(Cl)c12 (stereo not shown) [Compound 30, 8-chloro-N-((4,4-difluorocyclo-hexyl)methyl)-3-((tetrahydrofuran-3-yl)methyl)indolizine-1-carboxamide]
10 to 100 | 10 to 100 | COCCc1cc(C(=O)NCC2(O)CCCCCC2)c2c(Cl)cccn12 [Compound 35, 8-chloro-N-((1-hydroxycycloheptyl)methyl)-3-(2-methoxyethyl)indolizine-1-carboxamide]
10 to 100 | 10 to 100 | COCCc1cc(C(=O)NCC2CCC(F)(F)CC2)c2c(Cl)cccn12 [Compound 37, 8-chloro-N-((4,4-difluorocyclohexyl)methyl)-3-(2-methoxyethyl) indolizine-1-carboxamide]
101 to 500 | 10 to 100 | O=C(NCC1CCCC(F)(F)C1)c1cc(C2CCOC2)n2cccc(Cl)c12 (stereo not shown) [Compound 39, 8-Chloro-3-(tetrahydro-furan-3-yl)-indolizine-1-carboxylic Acid (3,3-difluoro-cyclohexyl methyl)-amide]
10 to 100 | 10 to 100 | O=C(NCC1CCC(F)(F)CC1)c1cc(C2CCOC2)n2cccc(Cl)c12 (stereo not shown) [Compound 40, 8-chloro-N-((4,4-difluorocyclohexyl)methyl)-3-(tetrahydro-furan-3-yl)indolizine-1-carboxamide]
10 to 100 | 101 to 500 | CC1CC(O)(CNC(=O)c2cc(C3CCOCC3)n3cccc(Cl)c23)CCC1(F)F (stereo not shown) [Compound 41, 8-chloro-N-((4,4-difluoro-1-hydroxy-3-methylcyclohexyl)methyl)-3-(tetrahydro-2H-pyran-4-yl)indolizine-1-carboxamide]

More lines, now with the values behind:

SMILES | IC50 (P2X7 [1]) [nM] | IC50 (P2X7 [2]) [nM]
O=C(NCC1CCCCCC1)c1cc(CCO)n2cccc(Cl)c12 [Compound 6, 8-chloro-N-(cycloheptylmethyl)-3-(2-hydroxyethyl)indolizine-1-Carboxamide] | 10 to 100 | 10 to 100
COCCc1cc(C(=O)NCC2CCCCC2)c2c(Cl)cccn12 [Compound 8, 8-chloro-N-(cyclohexylmethyl)-3-(2-methoxyethyl)-indolizine-1-carboxamide] | 101 to 500 | 10 to 100
COCCc1cc(C(=O)NCC2(O)CCCC(C)(C)C2)c2c(Cl)cccn12 (stereo not shown) [Compound 10, 8-chloro-N-((1-hydroxy-3,3-dimethylcyclohexyl)methyl)-3-(2-methoxyethyl) indolizine-1-carboxamide] | 10 to 100 | 10 to 100
COCCc1cc(C(=O)NCC2CCC(F)(F)C(C)C2)c2c(Cl)cccn12 (stereo not shown) [Compound 11, 8-chloro-N-((4,4-difluoro-3-methylcyclohexyl)methyl)-3-(2-methoxyethyl) indolizine-1-carboxamide] | 10 to 100 | < 10
COCCc1cc(C(=O)NCC2CC(C)CC(F)(F)C2)c2c(Cl)cccn12 (stereo not shown) [Compound 13, 8-chloro-N-((3,3-difluoro-5-methylcyclohexyl)methyl)-3-(2-methoxyethyl)indolizine-1-carboxamide] | 10 to 100 | 10 to 100
O=C(NCC1CCCCC1)c1cc(CCO)n2cccc(Cl)c12 [Compound 15, 8-chloro-N-(cyclohexylmethyl)-3-(2-hydroxyethyl)indolizine-1-carboxamide] | 101 to 500 | 101 to 500
COCCc1cc(C(=O)NC[C@@]2(O)CCC[C@@H](C)C2)c2c(C)cccn12 [Compound 16, 3-(2-Methoxy-ethyl)-8-methyl-indolizine-1-carboxylic Acid ((1R,3R)-1-hydroxy-3-methylcyclohexylmethyl)-amide] | 101 to 500 | 10 to 100
COCCc1cc(C(=O)NC[C@@]2(O)CCC[C@@H](C)C2)c2c(C(F)(F)F)cccn12 [Compound 22, 3-(2-Methoxy-ethyl)-8-trifluoromethyl-indolizine-1-carboxylic Acid ((1R,3R)-1-hydroxy-3-methyl-cyclohexylmethyl)-amide] | 10 to 100 | 10 to 100
COCCc1cc(C(=O)NCC2CCCC(F)(F)C2)c2c(Cl)cccn12 (stereo not shown) [Compound 31, 8-chloro-N-((3,3-difluorocyclohexyl)methyl)-3-(2-methoxyethyl)indolizine-1-carboxamide] | 10 to 100 | 10 to 100
CC1CC(CNC(=O)c2cc(CCO)n3cccc(Cl)c23)CCC1(F)F (stereo not shown) [Compound 32, 8-chloro-N-((4,4-difluoro-3-methylcyclohexyl)methyl)-3-(2-hydroxyethyl) indolizine-1-carboxamide] | 10 to 100 | < 10
CC1CC(CNC(=O)c2cc(CCO)n3cccc(Cl)c23)CC(F)(F)C1 (stereo not shown) [Compound 36, 8-chloro-N-((3,3-difluoro-5-methylcyclohexyl)methyl)-3-(2-hydroxyethyl)indolizine-1-carboxamide] | 10 to 100 | 10 to 100
